Measurements published in ChEMBL document CHEMBL1909046, “DrugMatrix in vitro pharmacology data”.
Where a SMILES comes first, the peptide text is derived from it. Bridges are numbered along the chain shown (N, C = ends). [ ]: non-standard residue; d: D form. The star is where a group is joined. Ileψ(thiazoline)Cys = CC[C@H](C)[C@H](N)C1=N[C@H](C(=O)*)CS1; dOrn = NCCC[C@@H](N)C(=O)O

Legend:
[1] = target: 5-hydroxytryptamine receptor 2B (Homo sapiens, UniProt P41595); assay type: cell membranes, CHO-K1, Membrane; also: in other assays of this panel Not Active means under 50% inhibition at 10 µM
Chain of 5-hydroxytryptamine receptor 2B (P41595 whole entry): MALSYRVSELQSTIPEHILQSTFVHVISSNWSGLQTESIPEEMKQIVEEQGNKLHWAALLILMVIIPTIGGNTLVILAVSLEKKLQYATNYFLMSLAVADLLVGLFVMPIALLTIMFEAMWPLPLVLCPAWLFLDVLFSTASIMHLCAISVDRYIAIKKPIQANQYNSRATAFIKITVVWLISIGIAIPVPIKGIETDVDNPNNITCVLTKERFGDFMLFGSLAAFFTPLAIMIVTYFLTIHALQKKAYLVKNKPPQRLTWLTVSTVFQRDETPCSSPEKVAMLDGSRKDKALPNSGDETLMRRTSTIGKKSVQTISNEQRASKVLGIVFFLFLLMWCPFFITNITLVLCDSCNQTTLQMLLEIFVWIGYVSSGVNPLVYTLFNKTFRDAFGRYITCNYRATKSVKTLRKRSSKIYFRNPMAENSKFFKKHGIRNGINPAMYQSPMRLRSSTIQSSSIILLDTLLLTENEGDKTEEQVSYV

[2] = target: Sigma non-opioid intracellular receptor 1 (Homo sapiens, UniProt Q99720); assay: DRUGMATRIX: Sigma1 radioligand binding (ligand: [3H] Haloperidol); assay type: cell membranes, Jurkat, Membrane; details: jurkat; Not Active = under 50% inhibition at 10 µM
Chain of Sigma non-opioid intracellular receptor 1 (Q99720 whole entry): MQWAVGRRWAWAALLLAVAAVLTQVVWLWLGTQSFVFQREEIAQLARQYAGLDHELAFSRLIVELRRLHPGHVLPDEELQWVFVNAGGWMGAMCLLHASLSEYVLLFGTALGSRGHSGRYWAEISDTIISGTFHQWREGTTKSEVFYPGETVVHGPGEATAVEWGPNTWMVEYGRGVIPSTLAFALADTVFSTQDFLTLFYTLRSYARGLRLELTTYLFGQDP

[3] = target: C-C chemokine receptor type 2 (Homo sapiens, UniProt P41597); assay type: cell membranes, CHO-K1, Membrane; details: cho-k1; also: in other assays of this panel Not Active means under 50% inhibition at 10 µM
Chain of C-C chemokine receptor type 2 (P41597 whole entry): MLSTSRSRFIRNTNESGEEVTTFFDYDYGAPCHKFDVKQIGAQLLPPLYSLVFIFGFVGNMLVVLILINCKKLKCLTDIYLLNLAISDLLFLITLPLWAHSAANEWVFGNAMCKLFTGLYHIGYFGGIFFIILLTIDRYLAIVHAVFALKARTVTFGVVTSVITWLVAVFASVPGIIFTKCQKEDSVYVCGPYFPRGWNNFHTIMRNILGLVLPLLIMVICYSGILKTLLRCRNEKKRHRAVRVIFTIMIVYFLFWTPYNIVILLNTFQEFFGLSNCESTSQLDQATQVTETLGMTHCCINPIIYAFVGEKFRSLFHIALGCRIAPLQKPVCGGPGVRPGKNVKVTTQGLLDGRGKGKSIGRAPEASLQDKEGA

[4] = target: T1, 3-hydroxy-3-methylglutaryl-coenzyme A reductase (Homo sapiens, UniProt P04035); design: species or system Escherichia coli;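 also: enzyme inhibition assay of HMG-CoA reductase using radiolabeled [14C]HMG-CoA as substrate; in other assays of this panel Not Active means under 50% inhibition at 10 µM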
T1 sequence (P04035 whole entry): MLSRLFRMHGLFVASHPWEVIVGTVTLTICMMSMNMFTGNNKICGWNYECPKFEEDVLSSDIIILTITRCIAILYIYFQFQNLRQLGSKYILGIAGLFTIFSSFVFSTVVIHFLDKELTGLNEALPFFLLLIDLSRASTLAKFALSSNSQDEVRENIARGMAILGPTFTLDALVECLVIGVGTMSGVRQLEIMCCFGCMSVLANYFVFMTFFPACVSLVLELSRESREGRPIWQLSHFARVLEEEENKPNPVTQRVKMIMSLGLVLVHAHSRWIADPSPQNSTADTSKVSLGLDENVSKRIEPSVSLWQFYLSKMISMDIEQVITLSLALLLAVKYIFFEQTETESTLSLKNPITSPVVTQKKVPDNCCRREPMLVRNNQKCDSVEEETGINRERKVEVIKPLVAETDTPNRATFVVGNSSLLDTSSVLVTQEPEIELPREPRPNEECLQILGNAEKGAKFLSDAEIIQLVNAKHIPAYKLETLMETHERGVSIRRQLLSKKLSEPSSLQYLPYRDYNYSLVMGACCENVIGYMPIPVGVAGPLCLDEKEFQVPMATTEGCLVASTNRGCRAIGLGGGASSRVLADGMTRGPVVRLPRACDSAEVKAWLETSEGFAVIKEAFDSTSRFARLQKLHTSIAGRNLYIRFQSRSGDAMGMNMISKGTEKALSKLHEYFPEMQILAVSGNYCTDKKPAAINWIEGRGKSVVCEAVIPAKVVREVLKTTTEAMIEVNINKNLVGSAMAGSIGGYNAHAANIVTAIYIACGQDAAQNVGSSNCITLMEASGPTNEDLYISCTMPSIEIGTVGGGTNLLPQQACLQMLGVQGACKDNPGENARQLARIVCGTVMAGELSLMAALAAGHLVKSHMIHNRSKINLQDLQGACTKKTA

[5] = DRUGMATRIX: Imidazoline I2, Central radioligand binding (ligand: [3H] Idazoxan); assay type: cell membranes, Rattus norvegicus, Wistar, Cerebral cortex, Membrane; details: Not Active = under 50% inhibition at 10 µM
[6] = target: T2, Neuropeptide Y receptor type 2 (Homo sapiens, UniProt P49146); assay type: cell membranes, Membrane; details: kan-ts; also: in other assays of this panel Not Active means under 50% inhibition at 10 µM
T2 sequence (P49146 whole entry): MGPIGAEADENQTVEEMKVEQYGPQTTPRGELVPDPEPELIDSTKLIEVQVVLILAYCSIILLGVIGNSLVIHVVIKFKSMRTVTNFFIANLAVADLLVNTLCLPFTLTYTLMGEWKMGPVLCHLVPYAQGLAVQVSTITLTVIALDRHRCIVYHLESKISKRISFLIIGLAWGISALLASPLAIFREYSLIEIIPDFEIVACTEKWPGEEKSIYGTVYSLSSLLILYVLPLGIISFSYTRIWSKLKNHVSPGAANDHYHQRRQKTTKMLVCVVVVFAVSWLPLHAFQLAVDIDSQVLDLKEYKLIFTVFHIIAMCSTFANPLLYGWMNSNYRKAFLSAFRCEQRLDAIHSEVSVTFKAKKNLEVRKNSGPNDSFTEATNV

[7] = DRUGMATRIX: Phosphodiesterase PDE4 enzyme inhibition (substrate: [3H]cAMP + cAMP); details: u-937; Not Active = under 50% inhibition at 10 µM
[8] = target: Platelet-activating factor receptor (Homo sapiens, UniProt P25105); assay: biochemical; assay type: tissue-based; details: platelet; also: in other assays of this panel Not Active means under 50% inhibition at 10 µM
Chain of Platelet-activating factor receptor (P25105 whole entry): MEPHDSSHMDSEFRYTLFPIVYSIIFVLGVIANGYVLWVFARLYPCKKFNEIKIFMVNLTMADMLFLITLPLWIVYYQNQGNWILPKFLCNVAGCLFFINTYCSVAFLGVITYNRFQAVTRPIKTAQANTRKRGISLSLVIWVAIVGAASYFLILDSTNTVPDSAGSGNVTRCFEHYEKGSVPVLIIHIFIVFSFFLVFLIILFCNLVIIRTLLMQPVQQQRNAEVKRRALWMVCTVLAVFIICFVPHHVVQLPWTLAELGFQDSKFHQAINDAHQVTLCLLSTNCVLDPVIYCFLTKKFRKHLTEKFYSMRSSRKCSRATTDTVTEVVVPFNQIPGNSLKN

Progesterone receptor = target: T3, Progesterone receptor (Bos taurus, UniProt Q690N0); assay: DRUGMATRIX: Progesterone radioligand binding (ligand: [3H] R-5020); assay type: tissue-based, Uterus; details: Not Active = under 50% inhibition at 10 µM
T3 sequence (Q690N0 whole entry): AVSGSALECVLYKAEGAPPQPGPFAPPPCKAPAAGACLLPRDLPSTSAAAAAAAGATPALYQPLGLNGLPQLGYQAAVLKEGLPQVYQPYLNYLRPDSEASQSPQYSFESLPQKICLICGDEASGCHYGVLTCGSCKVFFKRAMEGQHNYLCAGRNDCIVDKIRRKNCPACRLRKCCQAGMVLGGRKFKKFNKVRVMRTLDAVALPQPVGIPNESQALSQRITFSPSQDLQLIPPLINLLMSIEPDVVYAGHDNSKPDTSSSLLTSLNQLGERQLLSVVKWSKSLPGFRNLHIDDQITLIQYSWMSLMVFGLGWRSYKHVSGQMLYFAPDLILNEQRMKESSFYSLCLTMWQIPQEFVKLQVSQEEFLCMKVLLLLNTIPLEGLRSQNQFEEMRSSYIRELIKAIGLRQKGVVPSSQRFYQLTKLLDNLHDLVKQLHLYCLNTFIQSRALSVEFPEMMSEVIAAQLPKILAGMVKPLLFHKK

[9] = target: Protein phosphatase 3 catalytic subunit alpha (Homo sapiens, UniProt Q08209); design: species or system Escherichia coli
Acetylcholinesterase = Acetylcholinesterase (Homo sapiens, UniProt P22303); assay: DRUGMATRIX: Acetylcholinesterase enzyme inhibition (substrate: acetylthiocholine); assay type: cell-based, HEK293; details: hek293; Not Active = under 50% inhibition at 10 µM
Chain of Acetylcholinesterase (P22303 whole entry): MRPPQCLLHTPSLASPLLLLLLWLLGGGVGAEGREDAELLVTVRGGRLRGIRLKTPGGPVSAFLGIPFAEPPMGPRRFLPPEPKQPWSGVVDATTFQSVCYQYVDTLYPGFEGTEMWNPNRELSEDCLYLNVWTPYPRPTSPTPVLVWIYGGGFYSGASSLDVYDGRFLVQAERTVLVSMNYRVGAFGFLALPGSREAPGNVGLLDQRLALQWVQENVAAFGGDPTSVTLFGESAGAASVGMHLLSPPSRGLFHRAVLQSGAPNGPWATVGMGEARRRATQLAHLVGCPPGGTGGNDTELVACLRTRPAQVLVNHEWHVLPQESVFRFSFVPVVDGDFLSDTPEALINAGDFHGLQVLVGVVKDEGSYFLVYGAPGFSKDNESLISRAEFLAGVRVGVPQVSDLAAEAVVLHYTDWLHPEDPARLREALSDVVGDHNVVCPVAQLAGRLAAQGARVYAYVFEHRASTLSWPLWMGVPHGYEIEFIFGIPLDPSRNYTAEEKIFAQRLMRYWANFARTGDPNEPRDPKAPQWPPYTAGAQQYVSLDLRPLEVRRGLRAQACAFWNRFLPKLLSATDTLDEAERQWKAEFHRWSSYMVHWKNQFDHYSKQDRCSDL

Adenosine receptor A2a = Adenosine receptor A2a (Homo sapiens, UniProt P29274); assay: DRUGMATRIX: Adenosine A2A radioligand binding (ligand: […]); assay type: cell membranes, HEK293, Membrane; details: hek293; Not Active = under 50% inhibition at 10 µM
Chain of Adenosine receptor A2a (P29274 whole entry): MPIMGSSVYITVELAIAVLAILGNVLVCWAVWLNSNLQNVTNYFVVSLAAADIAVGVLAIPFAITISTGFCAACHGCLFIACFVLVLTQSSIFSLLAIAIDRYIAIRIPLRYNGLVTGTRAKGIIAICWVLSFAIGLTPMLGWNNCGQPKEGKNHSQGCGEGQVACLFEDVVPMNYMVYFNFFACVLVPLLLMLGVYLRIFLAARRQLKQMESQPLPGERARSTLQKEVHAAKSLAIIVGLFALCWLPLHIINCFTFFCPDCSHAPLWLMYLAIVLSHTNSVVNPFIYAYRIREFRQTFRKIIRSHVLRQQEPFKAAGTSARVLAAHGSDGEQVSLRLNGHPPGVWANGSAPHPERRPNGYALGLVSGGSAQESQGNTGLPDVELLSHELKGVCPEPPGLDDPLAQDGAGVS

Row | SMILES | IC50 ([1]; cho-k1) | IC50 [2] | IC50 [3] | IC50 [4] | IC50 [5] | Ki [5] | IC50 [6] | IC50 [7] | Ki [7] | IC50 [8] | IC50 (Progesterone receptor) | IC50 [9] | IC50 (Acetylcholinesterase) | IC50 (Adenosine receptor A2a) | IC50 ([1]; read-out: IC50) | Ki ([1]; read-out: Ki) | IC50 ([4]; read-out: IC50) | IC50 (Progesterone receptor; read-out: IC50) | Ki (Progesterone receptor; read-out: Ki)
1 | CC[C@H](C)[C@H](N)C1=N[C@H](C(=O)N[C@@H](CC(C)C)C(=O)N[C@H](CCC(=O)O)C(=O)N[C@H](C(=O)N[C@H]2CCCCNC(=O)[C@H](CC(N)=O)NC(=O)[C@@H](CC(=O)O)NC(=O)[C@H](Cc3cnc[nH]3)NC(=O)[C@@H](Cc3ccccc3)NC(=O)[C@H]([C@@H](C)CC)NC(=O)[C@@H](CCCN)NC2=O)[C@@H](C)CC)CS1 [BACITRACIN] ({Ileψ(thiazoline)Cys}-L[dE]IK[dOrn]I[dF]H[dD]N; lactam 4-C) | Not Active | Not Active | Not Active | Not Active | Not Active | Not Active | Not Active | Not Active | Not Active | Not Active | Not Active | Not Active | Not Active | Not Active | – | – | – | – | –
2 | CCOC(=O)c1ccc(N)cc1 [BENZOCAINE] | Not Active | Not Active | Not Active | Not Active | Not Active | Not Active | Not Active | Not Active | Not Active | Not Active | Not Active | Not Active | Not Active | Not Active | – | – | – | – | –
3 | OCc1ccccc1 [BENZYL ALCOHOL] | Not Active | Not Active | Not Active | Not Active | Not Active | Not Active | Not Active | Not Active | Not Active | Not Active | Not Active | Not Active | Not Active | Not Active | – | – | – | – | –
4 | CC(C)(Oc1ccc(CCNC(=O)c2ccc(Cl)cc2)cc1)C(=O)O [BEZAFIBRATE] | Not Active | Not Active | Not Active | Not Active | Not Active | Not Active | Not Active | Not Active | Not Active | Not Active | Not Active | Not Active | Not Active | Not Active | – | – | – | – | –
5 | CCCC[C@@H](CC)COC(=O)c1ccccc1C(=O)OC[C@@H](CC)CCCC [BIS(2-ETHYLHEXYL)PHTHALATE] | Not Active | Not Active | Not Active | Not Active | Not Active | Not Active | Not Active | Not Active | Not Active | Not Active | Not Active | Not Active | Not Active | Not Active | – | – | – | – | –
6 | Brc1ccccc1 [BROMOBENZENE] | Not Active | Not Active | Not Active | Not Active | Not Active | Not Active | Not Active | Not Active | Not Active | Not Active | Not Active | Not Active | Not Active | Not Active | – | – | – | – | –
7 | CCCCOC(=O)c1ccc(N)cc1 [BUTAMBEN] | Not Active | Not Active | Not Active | Not Active | Not Active | Not Active | Not Active | Not Active | Not Active | Not Active | Not Active | Not Active | Not Active | Not Active | – | – | – | – | –
8 | CC[C@@]1(O)C(=O)OCc2c1cc1n(c2=O)Cc2cc3ccccc3nc2-1 [CAMPTOTHECIN] | – | Not Active | Not Active | Not Active | Not Active | Not Active | Not Active | Not Active | Not Active | Not Active | Not Active | Not Active | Not Active | Not Active | 970 nM | 617 nM | – | – | –
9 | COCc1c(C(C)C)nc(C(C)C)c(/C=C/[C@@H](O)C[C@@H](O)CC(=O)O)c1-c1ccc(F)cc1 [CERIVASTATIN] | Not Active | Not Active | Not Active | – | Not Active | Not Active | Not Active | Not Active | Not Active | Not Active | Not Active | Not Active | Not Active | Not Active | – | – | 0.085 nM | – | –
10 | CC(=O)O[C@]1(C(C)=O)CC[C@H]2[C@@H]3C=C(Cl)C4=CC(=O)CC[C@]4(C)[C@H]3CC[C@@]21C [CHLORMADINONE ACETATE] | Not Active | Not Active | Not Active | Not Active | Not Active | Not Active | Not Active | Not Active | Not Active | Not Active | – | Not Active | Not Active | Not Active | – | – | – | 5.26 nM | 0.687 nM
